# According to patent publication US20260232625A1, “NOVEL DECURSIN DERIVATIVE AND USE THEREOF FOR PREVENTING OR TREATING NON-SMALL CELL LUNG CANCER” (JAEIN R&P INC., priority 2023, published 2026):
# pIC50: −log10 of the molar value. Entries after “also recorded” stand apart in the source; their conditions may differ.
# Legend:
# A549 cells = assay: Co-administration with gefitinib, MTT cell viability and synergy score in A549 cells; assay type: cell-based, human; conditions: for cytotoxicity against A549 on co-administration with gefitinib: gefitinib 1.25-20 μM plus compound 6.25-100 μM, compared with decursin plus gefitinib, FIG. 2
# Protocol: (§1) A549 (human lung cancer cells) were obtained from the American Type Culture Collection (ATCC) and used. The cells were cultured in a medium containing 10% FBS, 1% penicillin (10,000 units/mL), and streptomycin (10 mg/mL), or in Dulbecco's Modified Eagle's Medium (DMEM), at 37° C. under 5% CO2 conditions.
# Nevertheless, the compound of Example 5, when used as a single agent, was somewhat limited in its efficacy, and therefore its potential as a co-administration agent with existing non-small cell lung cancer therapeutic agents was examined. To this end, gefitinib (Iressa) was selected, and the compound of Example 5, together with decursin for comparison, was co-administered to A549 cells, and the cytotoxicity thereof was measured. To further evaluate dose dependency, gefitinib was administered at concentrations of 0 μM (untreated), 1.25 μM, 2.5 μM, 5 μM, 10 μM, and 20 μM, in combination with either decursin or the […], each administered at concentrations of 0 μM (untreated), 6.25 μM, 12.5 μM, 25 μM, 50 μM, and 100 μM. The relative cell viability was measured by setting the viability of the untreated group, i.e., cells not treated with either gefitinib or decursin/decursin derivative, to 100%, and the results are shown in FIG. 2. Cell viability was determined using an MTT assay. […] In particular, as the concentration of the decursin derivative increased to 12.5 μM or higher, the difference in cell-killing effect became more pronounced.
# Furthermore, the synergy score of the cytotoxicity of the combination of gefitinib with decursin or with the decursin derivative compound of Example 5 against A549 cells was calculated using the Synergyfinder webtool, and the results are shown in FIG. 3. A calculated synergy score of 10 or more was considered to indicate a synergistic effect, a score between −10 and 10 was considered to indicate an additive effect, and a score below −10 was considered to indicate an antagonistic effect.
# A549 = assay: MTT cytotoxicity evaluation against A549 cells; assay type: cell-based, human; conditions: for pIC50: Homo sapiens, A549, 48 h, 48 hours
# Protocol: as §1
# To measure cytotoxicity, an MTT assay was used. Specifically, A549 cells cultured according to Experimental Example 1 were seeded into a 96-well plate at a density of 2.5×10^4 cells/mL in 100 μL, and incubated for 24 hours. Thereafter, the cells were treated with either the compounds prepared according to Examples 1 to 27 or, as comparative agents, decursin or docetaxel. The prepared compounds and decursin were each administered to the A549 cell line at concentrations of 0 μM (untreated), 12.5 μM, 25 μM, 50 μM, 100 μM, and 200 μM, while docetaxel was administered at concentrations of 0 nM (untreated), 0.1 nM, 1 nM, 10 nM, 100 nM, and 1,000 nM, followed by incubation for an additional 48 hours. Then, 20 μL of MTT solution was added (Method 1). Alternatively, the compounds prepared according to Examples 28 to 30, the compound of Example 5 as a reference compound or, as comparative agents, decursin or docetaxel, were used. The prepared compounds, the compound of Example 5, and decursin were each administered at concentrations of 0 μM (untreated), 3.125 μM, 6.25 μM, 12.5 μM, 25 μM, and 50 μM, while docetaxel was administered at concentrations of 0 nM (untreated), 0.6 nM, 1.25 nM, 2.5 nM, 5 nM, and 10 nM, and treated in the same manner as described in Method 1 (Method 2). The cells treated with MTT solution were incubated for 2 hours, the medium was removed, and the formazan blue crystals formed by the cells were treated with an MTT lysis buffer, followed by incubation in a cell incubator for 24 hours. The MTT lysis buffer was prepared by mixing N,N-dimethylformamide with water in a 1:1 ratio to give a solution containing 20% SIDS (sodium dodecyl sulfate) at the final concentration. The optical density at 590 nm was measured using a microplate reader (FIGS. 1a to 1d). Based on the measured values, the cytotoxicity (IC50) against A549 was calculated, and the results are disclosed in Table 1 together with the structural formulae.
# [1] = Method 2 (marked *): 3.125-50 μM
Structure (SMILES),"synergy score of cytotoxicity against A549 (A549 cells; 10 μM gefitinib plus 6.25 μM compound, Synergyfinder webtool, score of 10 or more = synergistic)",cytotoxicity against A549 on co-administration with gefitinib (A549 cells),cytotoxicity against A549 on co-administration with gefitinib (A549 cells; listed as compound of Formula 2),pIC50 (A549; Method 1: 12.5-200 μM),pIC50 (A549; [1]),cell-killing effect against human lung cancer cell line A549 compared to decursin (A549; single agent)
"CC1(C)Oc2cc3oc(=O)ccc3cc2C[C@@H]1OC(=O)/C=C/c1ccoc1 [Example 5, (S,E)-2,2-dimethyl-8-oxo-2,3,4,8-tetrahydropyrano[3,2-g]chromen-3-yl 3-(furan-3-yl)acrylate]",~15,superior to that observed with co-administration of decursin and gefitinib,synergistic cell-killing effect,4.52,5.10,superior cell-killing effect; also recorded: most potent effect
"CN(C)c1ccc(/C=C/C(=O)O[C@H]2Cc3cc4ccc(=O)oc4cc3OC2(C)C)cc1 [Example 30, (S,E)-2,2-dimethyl-8-oxo-2,3,4,8-tetrahydropyrano[3,2-g]chromen-3-yl 3-(4-(dimethylamino)phenyl)acrylate]",,,,,3.82,
